The test concerns the target T1, ABL1 H396P (Homo sapiens, UniProt P00519, H396P).
T1 construct: purchased Thermo Fisher Scientific (Life Technologies) SelectScreen
Nature of the test: SelectScreen LanthaScreen. Type of test: binding. Conditions: read-out: % displacement. A digest of the protocol:
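Percent values come from Thermo SelectScreen profiling of NU5455, combining activity and binding assays. CSF1R was run in Z'LYTE format at Km app ATP, and CAMK1 in Adapta format with ATP listed at 10.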
In general terms: Time-resolved FRET reads energy transfer from a long-lived donor to a nearby acceptor.

In the case of `CN(C(=O)CN1CCOCC1)c1ccc2sc3c(-c4cccc5c(=O)cc(N6CC7CCC(C6)O7)oc45)cccc3c2c1` [NU5455], the inhibition at 1 µM amounted to 0.6%.
